Data reported in patent US10085955B2, “Methods and compositions for treatment of demyelinating diseases” (Pathologica LLC, priority 2013, dated 2018).

Tests used:
[1] = system: PGE2 production in carrageenan air pouch; experiment: Carrageenan air pouch model; assay type: in vivo, Lewis rats; conditions: rat pouch fluid, 3 or 24 hours post-carrageenan; naproxen 10 mg/kg, dexamethasone 1 mg/kg
Description: Injection of air subcutaneously will induce the formation of a connective tissue cavity lined with cells that resemble and function like a synovial lining. This method is commonly known as the Air Pouch Model and is a useful animal model of inflammation that can be generated in a relatively short period of time. The air pouch may be created by subcutaneous (SQ) injection of a volume of sterile air in the dorsal neck region. The model may be used to test the efficacy and potency of compounds such as polyamine analogues and polyamine biosynthesis inhibitors such as MGBG in reducing various cellular and biochemical indicators of inflammation when administered as an oral (PO) gavage administration. Healthy Male Lewis rats (Charles River Laboratories, Wilmington, Mass.) weighing between 175-200 g were used. […] A correction factor of 1.49 was used to account for the dihydrochloride salt/monohydrate form of MGBG. […] Air pouches were formed on the dorsum of the rats during the last 4 days of MGBG or vehicle administration prior to carrageenan injection. Briefly, rats were anesthetized with isoflurane, during which dorsal hair was removed and 20 mL of sterile air was injected subcutaneously into the intrascapular region. Pouches were allowed to develop for the next 4 days, with re-inflation (to maintain pouch volume) of pouches 1 day prior to carrageenan injection. One hour prior to carrageenan injection, animals were given their last dose of drug (MGBG, vehicle, naproxen, or dexamethasone). A 1% suspension of carrageenan (2 mL; FMC BioPolyer, Philadelphia, Pa.) suspended in saline was injected into the pouch cavity. At either 3 hours or 24 hours post-carrageenan injection, rats were euthanized by CO2 asphyxiation and 2.5 mL of PBS (Sigma Chemical, St. Louis, Mo.) was injected directly into the pouch. The pouch was opened with surgical scissors and the pouch fluid was collected using a transfer pipette. One aliquot was collected for measurement of total cell count with differential, and the other aliquot for PGE2 determination. […]

[2] = system: MOG-induced experimental autoimmune encephalomyelitis (EAE); experiment: First MOG EAE protocol (murine multiple sclerosis model); assay type: in vivo, C57BL/6 mice; conditions: first 28-day study; MGBG 30 mpk BID, fingolimod 3 mpk QD; throughout/duration of experiment
Description: An experimental murine model of multiple sclerosis employing a myelin oligodendrocyte glycoprotein (MOG) peptide to induce experimental autoimmune encephalomyelitis (EAE) was employed to determine the efficacy of MGBG in preventing and treating that disease. Because of its many similarities to MS, EAE is commonly used to study pathogenesis of autoimmunity, CNS inflammation, demyelination, cell trafficking, and tolerance induction. EAE is characterized by paralysis (in some models the paralysis is remitting-relapsing), CNS inflammation and demyelination. EAE is mediated primarily by dendritic cells, myelin-specific T cells (e.g. Th1 and Th17), and M1 macrophages. B cells may also play a role in some models of EAE. Body weight also tracks disease progression. EAE is induced in C57BL/6 mice by immunization with MOG35-55 or MOG1-125 in CFA emulsion followed by administration of pertussis toxin (PTX) in PBS. The emulsion provides antigen which initiates expansion and differentiation of MOG-specific autoimmune T cells. PTX enhances EAE development by providing additional adjuvant and facilitating entrance of autoimmune T cells into the CNS.
Chronic EAE develops in C57BL/6 mice after immunization with an emulsion of MOG35-55/CFA or MOG1-125/CFA followed by injection of pertussis toxin. This model is used to test the potential of compounds to prevent or mitigate EAE disease. It can be run with the compound dosed from the time of immunization (prophylactic treatment), or with the aim of reversing the course of disease and facilitating recovery by dosing the compound from the time of EAE onset (therapeutic treatment). The model uses female C57BL/6 mice of age 10 to 14 weeks at the start of the study. Typically, EAE develops 8-18 days after immunization. EAE development is usually followed for 4 weeks (28 days) after immunization.
In prophylactic studies, treatment begins before disease onset, at the time of immunization and group assignment. Mice are assigned to treatment groups in a balanced manner to achieve groups with similar distributions of body weights. Prophylactic studies assess if treatment will affect the course of disease both before and after the first clinical signs of EAE. To compensate for the stress of treatment in prophylactic treatment studies and achieve the target disease severity, EAE may be induced with a higher dose of pertussis toxin than used in therapeutic studies. The dose of pertussis toxin is based on expected stress due to dosing (route, frequency, and formulation of vehicle).
Clinically, EAE progression is scored on a scale of 0 to 5, wherein each score represents the following clinical observations:
Inflammatory foci of approximately 20 cells were counted in each H&E stained section. When inflammatory infiltrates consisted of more than 20 cells, an estimate was made of how many foci of 20 cells were present.
The demyelination score represents an estimate of demyelinated area for each section as follows:
Unless otherwise noted, statistical analysis was performed as follows: disease incidence compared using chi-square test; mean day of EAE onset, change in body weight, and number of apoptotic cells compared using 2-tailed Student's t-test; median day of EAE onset compared using Wilcoxon's survival test; mean maximum score (MMS), end score, and demyelination scores (LFB and H&E) compared using Wilcoxon's non-parametric test.
Ten week old female C57BL/6 mice weighing 18-23 g (Taconic Farms) were divided into four groups: mock immunized (n=3) and three MOG-immunized groups receiving MGBG at 30 mpk BID (as the di-HCl monohydrate with a correction factor of 1.49), fingolimod (FTY720) at 3 mpk QD with a second mock vehicle dose, or 0.9% saline vehicle BID (n=12 each). […]

Row | Compound | production of PGE2 (inflammatory and basal levels) [1] | mean clinical score (scale 0 to 5) [2]
1 | COc1ccc2cc([C@H](C)C(=O)O)ccc2c1 [naproxen] | inhibited production of both inflammatory and basal levels | –
2 | CCCCCCCCc1ccc(CCC(N)(CO)CO)cc1 [fingolimod] | – | 0
